According to patent US20230086702A1, “SUBSTITUTED 2-AMINO-PYRAZOLYL-[1,2,4]TRIAZOLO[1,5A]PYRIDINE DERIVATIVES AND USE THEREOF” (The Johns Hopkins University, priority 2019, published 2023):

Experiments:
DLK = target: T1, DLK (Homo sapiens, UniProt Q12852); assay: DLK biochemical assay (TR-FRET, MKK7 phosphorylation)
T1 construct: 10 nM DLK, catalytic domain, Carna Biosiences; purchased Carna Biosciences ('Carna Biosiences' [sic])
T1 sequence (Q12852 125-366 limits assumed): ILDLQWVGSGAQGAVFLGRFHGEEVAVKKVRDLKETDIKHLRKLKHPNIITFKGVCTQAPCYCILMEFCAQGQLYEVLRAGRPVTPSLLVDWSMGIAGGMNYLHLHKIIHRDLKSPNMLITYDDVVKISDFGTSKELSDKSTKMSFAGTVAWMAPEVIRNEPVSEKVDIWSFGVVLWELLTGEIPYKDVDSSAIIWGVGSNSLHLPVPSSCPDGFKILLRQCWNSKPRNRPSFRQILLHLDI
Procedure: (§1) DLK assay is a biochemical assay format designed to screen for inhibitors of DLK. Enzymatic activity of DLK is measured by monitoring phosphorylation of the physiological substrate MKK7 (MAP2K7, Dual specificity mitogen-activated protein kinase kinase 7). Phosphorylation is detected by a TR-FRET system whereby His-tagged MKK7 is labeled by a XL665-labeled anti-His antibody (FRET acceptor, emission 665 nm). DLK phosphorylates MKK7 at T275/S277, which is detected by an Eu-labeled anti-phospho-MKK7 (T275/S277) antibody (FRET donor, excitation 340 nm). Phosphorylation of MKK7 results in an increased TR-FRET signal (Ratio XL665-channel/Eu-channel) and inhibition of enzymatic activity of DLK decreases the TR-FRET signal.
Assay Protocol for 1536 MTP format: test compounds are predispensed (60 nl) in test plates; +3 μl DLK solution (10 nM DLK, catalytic domain, Carna Biosiences, 0.6 mM DTT in assay buffer); +2 μl substrate solution (15 nM MKK7, LDB; 60 μM ATP; 0.4 mM DTT in assay buffer); 90 min incubation at RT; +2 μl detection mix (5 nM XL665-labeled anti-His antibody, Cisbio; 0.1 nM Eu-labeled anti-phospho-MKK7 (T275/S277), Cisbio/Millipore in detection buffer); 16 h incubation at 37° C.; endpoint measurement BMG (HTRF).
(§2) Assay Protocol for 384 low volume MTP format: 1 μl of test compounds is pipetted into test plate; +5 μl DLK solution (10 nM DLK, catalytic domain, Carna Biosiences in assay buffer); +5 μl substrate solution (15 nM MKK7, LDB; 60 μM ATP, in assay buffer); 90 min incubation at RT; +9 μl detection mix (20 nM XL665-labeled anti-His antibody, Cisbio; 0.4 nM Eu-labeled anti-phospho-MKK7 (T275/S277), Cisbio/Millipore in detection buffer); 16 h incubation at 4° C.; endpoint measurement BMG (HTRF).
(§3) All indicated concentrations final concentrations.
(§4) Assay buffer (384 format): 50 mM Hepes pH 7.5, 10 mM MgCl2, 1 mM EGTA, 1 mM DTT, 0.01% Triton X-100, 0.01% BSA, 1:500 Smart Block.
(§5) Detection buffer: 25 mM Tris/HCl pH 7.5, 100 mM EDTA, 100 mM NaCl, 200 mM KF, 0.01% Tween 20, 1:500 Smart Block.

LZK = target: T2, LZK (Homo sapiens, UniProt O43283); assay: LZK biochemical assay (TR-FRET, MKK7 phosphorylation)
T2 construct: 10 nM LZK, catalytic domain, Carna Biosiences in assay buffer; purchased Carna Biosciences ('Carna Biosiences' [sic])
T2 sequence (O43283 168-409 limits assumed): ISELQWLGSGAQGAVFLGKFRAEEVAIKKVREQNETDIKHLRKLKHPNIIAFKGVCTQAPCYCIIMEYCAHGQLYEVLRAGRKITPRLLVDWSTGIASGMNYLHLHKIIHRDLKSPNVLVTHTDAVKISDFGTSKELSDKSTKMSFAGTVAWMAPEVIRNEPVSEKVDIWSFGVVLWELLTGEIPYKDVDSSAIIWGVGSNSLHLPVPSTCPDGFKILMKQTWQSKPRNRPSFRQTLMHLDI
Procedure: as §1, with “LZK” for “DLK”, “LZK.” for “DLK.”, “T275/S277” for “T275/S277,”
as §2, with “compound” for “compounds”, “LZK” for “DLK”, “LZK,” for “DLK,”, “15” for “60”, “+5” for “+9”, “32°” for “4°”
as §3, §4, §5

IC50 (DLK)	IC50 (LZK)	SMILES
46 nM	74 nM	CCC(c1ccc(C(F)(F)F)nc1)n1cc(-c2cc(-c3ccc(C(F)(F)F)nc3)c3nc(N)nn3c2)cn1 (racemic) [II-37, 8-[6-(Trifluoromethyl)pyridin-3-yl]-6-(1-{1-[6-(trifluoromethyl)pyridin-3-yl]propyl}-1H-pyrazol-4-yl)[1,2,4]triazolo[1,5-a]pyridin-2-amine]
46 nM	27 nM	CC(C)C(c1ccc(C(F)(F)F)nc1)n1cc(-c2cc(-c3ccc(N4CCCC4)nc3)n3nc(N)nc3c2)cn1 (racemic) [II-79, 7-(1-{2-Methyl-1-[6-(trifluoromethyl)pyridin-3-yl]propyl}-1H-pyrazol-4-yl)-5-[6-(pyrrolidin-1-yl)pyridin-3-yl][1,2,4]triazolo[1,5-a]pyridin-2-amine]
2.2 nM	6.6 nM	CN(C)c1cccc(-c2cc(-c3cnn(C(c4ccc(C(F)(F)F)nc4)C4CCOCC4)c3)cn3nc(N)nc23)c1 (racemic) [II-22, 8-[3-(Dimethylamino)phenyl]-6-(1-{tetrahydro-2H-pyran-4-yl[6-(trifluoromethyl)pyridin-3-yl]methyl}-1H-pyrazol-4-yl)[1,2,4]triazolo[1,5-a]pyridin-2-amine]
17 nM	45 nM	Nc1nc2c(-c3cccc(S(=O)(=O)C(F)(F)F)c3)cc(-c3cnn(C(c4ccc(C(F)(F)F)nc4)C4CCOCC4)c3)cn2n1 (racemic) [II-19, 6-(1-{Tetrahydro-2H-pyran-4-yl[6-(trifluoromethyl)pyridin-3-yl]methyl}-1H-pyrazol-4-yl)-8-{3-[(trifluoromethyl)sulfonyl]phenyl}[1,2,4]triazolo[1,5-a]pyridin-2-amine]
1.1 nM	5.2 nM	Nc1nc2cc(-c3cnn(C(c4ccc(C(F)(F)F)nc4)C4CCOCC4)c3)cc(-c3cn(CC(F)(F)F)c(=O)cn3)n2n1 (single isomer, unassigned) [II-195, 5-[2-Amino-7-(1-{tetrahydro-2H-pyran-4-yl[6-(trifluoromethyl)pyridin-3-yl]methyl}-1H-pyrazol-4-yl)[1,2,4]triazolo[1,5-a]pyridin-5-yl]-1-(2,2,2-trifluoroethyl)pyrazin-2(1H)-one]
4 nM	6.5 nM	Nc1nc2cc(-c3cnn(C(c4ccc(C(F)(F)F)nc4)C4CCOCC4)c3)cc(-c3ccc(=O)n(C(F)F)c3)n2n1 (stereo not shown) [II-182]
12 nM	8 nM	CCC(c1ccc(C(F)(F)F)nc1)n1cc(-c2cc(-c3ccc(=O)n(C(F)F)c3)n3nc(N)nc3c2)cn1 (stereo not shown) [II-179]
15 nM	74 nM	CC[C@@H](c1ccccc1)n1cc(-c2cc(-c3ccc(=O)[nH]c3)n3nc(N)nc3c2)cn1 [II-178, 5-(2-Amino-7-{1-[(1S)-1-phenylpropyl]-1H-pyrazol-4-yl}[1,2,4]triazolo[1,5-a]pyridin-5-yl)pyridin-2(1H)-one]
44 nM	44 nM	CC(C)C(c1ccc(C(F)(F)F)nc1)n1cc(-c2cc(-c3ccc(C4CC(F)(F)C4)nc3)n3nc(N)nc3c2)cn1 (racemic) [II-73, 5-[6-(3,3-Difluorocyclobutyl)pyridin-3-yl]-7-(1-{2-methyl-1-[6-(trifluoromethyl)pyridin-3-yl]propyl}-1H-pyrazol-4-yl)[1,2,4]triazolo[1,5-a]pyridin-2-amine]
2.7 nM	5.4 nM	CCC(c1ccc(C(F)(F)F)nc1)n1cc(-c2cc(-c3ccc(=O)n(C(F)F)c3)n3nc(N)nc3c2)cn1 (single isomer, unassigned) [II-181, 5-[2-Amino-7-(1-{1-[6-(trifluoromethyl)pyridin-3-yl]propyl}-1H-pyrazol-4-yl)[1,2,4]triazolo[1,5-a]pyridin-5-yl]-1-(difluoromethyl)pyridin-2(1H)-one]
6.5 nM	230 nM	CC[C@@H](c1ccccc1)n1cc(-c2cc(-c3cnn(C)c3)c3nc(N)nn3c2)cn1 [II-90, 8-(1-Methyl-1H-pyrazol-4-yl)-6-{1-[(1S)-1-phenylpropyl]-1H-pyrazol-4-yl}[1,2,4]triazolo[1,5-a]pyridin-2-amine]
9.5 nM	10 nM	CC(C)C(c1ccc(C(F)(F)F)nc1)n1cc(-c2cc(-c3ccc(C4CC4)nc3)c3nc(N)nn3c2)cn1 (single isomer, unassigned) [II-45, 8-(6-Cyclopropylpyridin-3-yl)-6-(1-{2-methyl-1-[6-(trifluoromethyl)pyridin-3-yl]propyl}-1H-pyrazol-4-yl)[1,2,4]triazolo[1,5-a]pyridin-2-amine]
31 nM	84 nM	CC(C)C(c1ccc(C(F)F)nc1)n1cc(-c2cc(-c3ccc(OC(F)F)nc3)n3nc(N)nc3c2)cn1 (racemic) [II-49, 5-[6-(Difluoromethoxy)pyridin-3-yl]-7-(1-{1-[6-(difluoromethyl)pyridin-3-yl]-2-methylpropyl}-1H-pyrazol-4-yl)[1,2,4]triazolo[1,5-a]pyridin-2-amine]
1.3 nM	9.9 nM	Nc1nc2c(-c3cn(CC(F)(F)F)c(=O)cn3)cc(-c3cnn(C(c4ccc(C(F)(F)F)nc4)C4CCOCC4)c3)cn2n1 (single isomer, unassigned) [II-167, 5-[2-Amino-6-(1-{tetrahydro-2H-pyran-4-yl[6-(trifluoromethyl)pyridin-3-yl]methyl}-1H-pyrazol-4-yl)[1,2,4]triazolo[1,5-a]pyridin-8-yl]-1-(2,2,2-trifluoroethyl)pyrazin-2(1H)-one]
45 nM	130 nM	CCC(c1ccc(C(F)(F)F)cc1)n1cc(-c2cc(-c3cnn(C4CCCC4)c3)n3nc(N)nc3c2)cn1 (single isomer, unassigned) [II-133, 5-(1-Cyclopentyl-1H-pyrazol-4-yl)-7-(1-{1-[4-(trifluoromethyl)phenyl]propyl}-1H-pyrazol-4-yl)[1,2,4]triazolo[1,5-a]pyridin-2-amine]
2.7 nM	13 nM	Nc1nc2c(-c3ccn(CC(F)(F)F)c(=O)c3)cc(-c3cnn(C(c4ccc(C(F)(F)F)nc4)C4CCOCC4)c3)cn2n1 (stereo not shown) [II-175]
5.7 nM	140 nM	CCC(c1ccc(N2CCOCC2)cc1)n1cc(-c2cc(-c3cnn(CC(F)(F)F)c3)c3nc(N)nn3c2)cn1 (racemic) [II-102, 6-(1-{1-[4-(Morpholin-4-yl)phenyl]propyl}-1H-pyrazol-4-yl)-8-[1-(2,2,2-trifluoroethyl)-1H-pyrazol-4-yl][1,2,4]triazolo[1,5-a]pyridin-2-amine]
